Source: PubChem BioAssay AID248 (DTP/NCI, 2004)
Toxic doses and inconclusive results are not listed. Cut-off read from the data, not from the text of the source: active = T/C of 150% or more; inactive = T/C below 125%.

Test system: L1210 leukemia ip in BDF1 mice, survival T/C
Experiment: NCI In Vivo Anticancer Drug Screen. Data for tumor model L1210 Leukemia (intraperitoneal) in B6D2F1 (BDF1) mice
Conditions: endpoint: mean survival time, higher = longer survival
Method in brief: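 Tumor cells were implanted, animals were treated, and survival was followed. The result divides the treated measurement by the vehicle-control measurement.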

[1] = dose: 100.0 mg/kg/injection, schedule: Q01DX001 (ip), vehicle: saline
[2] = dose: 200.0 mg/kg/injection, schedule: Q01DX001 (ip), vehicle: saline
[3] = dose: 100.0 mg/kg/injection, schedule: Q04DX003 (ip), vehicle: Klucel (hydroxypropylcellulose) (HPC)
[4] = dose: 100.0 mg/kg/injection, schedule: Q01DX009 (ip), vehicle: Klucel (hydroxypropylcellulose) (HPC)
[5] = dose: 200.0 mg/kg/injection, schedule: Q01DX009 (ip), vehicle: Klucel (hydroxypropylcellulose) (HPC)
[6] = dose: 400.0 mg/kg/injection, schedule: Q01DX009 (ip), vehicle: Klucel (hydroxypropylcellulose) (HPC)
[7] = dose: 100.0 mg/kg/injection, schedule: Q01DX009 (ip), vehicle: saline with Tween-80
[8] = dose: 100.0 mg/kg/injection, schedule: Q04DX003 (ip), vehicle: saline with Tween-80
[9] = dose: 200.0 mg/kg/injection, schedule: Q01DX009 (ip), vehicle: saline with Tween-80
[10] = dose: 200.0 mg/kg/injection, schedule: Q04DX003 (ip), vehicle: saline with Tween-80
[11] = dose: 400.0 mg/kg/injection, schedule: Q01DX009 (ip), vehicle: saline with Tween-80
[12] = dose: 400.0 mg/kg/injection, schedule: Q04DX003 (ip), vehicle: saline with Tween-80
[13] = dose: 400.0 mg/kg/injection, schedule: Q01DX001 (ip), vehicle: saline
[14] = dose: 100.0 mg/kg/injection, schedule: Q04DX002 (ip), vehicle: Klucel (hydroxypropylcellulose) (HPC)
[15] = dose: 200.0 mg/kg/injection, schedule: Q04DX002 (ip), vehicle: Klucel (hydroxypropylcellulose) (HPC)
[16] = dose: 400.0 mg/kg/injection, schedule: Q04DX002 (ip), vehicle: Klucel (hydroxypropylcellulose) (HPC)
[17] = dose: 100.0 mg/kg/injection, schedule: Q01DX001 (ip), vehicle: carboxymethylcellulose (CMC)
[18] = dose: 200.0 mg/kg/injection, schedule: Q01DX001 (ip), vehicle: carboxymethylcellulose (CMC)
[19] = dose: 25.0 mg/kg/injection, schedule: Q01DX009 (ip), vehicle: Klucel (hydroxypropylcellulose) (HPC)
[20] = dose: 50.0 mg/kg/injection, schedule: Q01DX009 (ip), vehicle: Klucel (hydroxypropylcellulose) (HPC)

Measured: T/C

N#CCC[N+]1([O-])CCCCC1C(=O)O (stereo not drawn)
inactive: [1] 98 % of control | [2] 98 % of control

COC(=O)c1cc2c(cc1N=Cc1ccccc1Cl)OCO2
inactive: dose: 75.0 mg/kg/injection, schedule: Q04DX003 (ip), vehicle: Klucel (hydroxypropylcellulose) (HPC) 101 % of control | dose: 100.0 mg/kg/injection, schedule: Q01DX001 (ip), vehicle: Klucel (hydroxypropylcellulose) (HPC) 97 % of control | dose: 150.0 mg/kg/injection, schedule: Q04DX003 (ip), vehicle: Klucel (hydroxypropylcellulose) (HPC) 98 % of control | dose: 200.0 mg/kg/injection, schedule: Q01DX001 (ip), vehicle: Klucel (hydroxypropylcellulose) (HPC) 95 % of control | dose: 300.0 mg/kg/injection, schedule: Q04DX003 (ip), vehicle: Klucel (hydroxypropylcellulose) (HPC) 97 % of control | dose: 400.0 mg/kg/injection, schedule: Q01DX001 (ip), vehicle: Klucel (hydroxypropylcellulose) (HPC) 95 % of control

COc1cc(C)ccc1-c1c(C(=O)O)cccc1[N+](=O)[O-]
inactive: [3] 93 % of control | dose: 200.0 mg/kg/injection, schedule: Q04DX003 (ip), vehicle: Klucel (hydroxypropylcellulose) (HPC) 95 % of control | dose: 400.0 mg/kg/injection, schedule: Q04DX003 (ip), vehicle: Klucel (hydroxypropylcellulose) (HPC) 90 % of control

N#CC(C#N)=Cc1ccc(Cl)cc1
inactive: dose: 50.0 mg/kg/injection, schedule: Q01DX001 (ip), vehicle: other 105 % of control | dose: 100.0 mg/kg/injection, schedule: Q01DX001 (ip), vehicle: other 102 % of control | dose: 200.0 mg/kg/injection, schedule: Q01DX001 (ip), vehicle: other 113 % of control

COc1cc([N+](=O)[O-])ccc1NC(=O)Oc1ccc(NC(C)=O)cc1
inactive: [4] 101 % of control | [5] 106 % of control | [6] 91 % of control

CC(=O)N1C(=O)NC(=O)C1(C)c1ccc(Cl)s1 (stereo not drawn)
inactive: [7] 96 % of control | [8] 100 % of control | [9] 103 % of control | [10] 97 % of control | [11] 91 % of control | [12] 88 % of control

COC1CC(N=[N+]=[N-])C(OC(=O)c2ccccc2)C(C)O1 (stereo not drawn)
inactive: [7] 110 % of control | [8] 96 % of control | [9] 102 % of control | [10] 100 % of control | [11] 98 % of control | [12] 102 % of control

CN(C)c1ccc(C=Nc2ccc([N+](=O)[O-])cc2O)cc1
inactive: [1] 97 % of control | [2] 95 % of control | [13] 92 % of control

Nc1ccc([N+](=O)[O-])cc1Cl
inactive: [14] 122 % of control | [15] 105 % of control | [16] 97 % of control

[Br][Ge]([c]1ccccc1)([c]1ccccc1)[c]1ccccc1
inactive: dose: 25.0 mg/kg/injection, schedule: Q04DX002 (ip), vehicle: saline with Tween-80 104 % of control | dose: 50.0 mg/kg/injection, schedule: Q04DX002 (ip), vehicle: saline with Tween-80 96 % of control | dose: 100.0 mg/kg/injection, schedule: Q04DX002 (ip), vehicle: saline with Tween-80 104 % of control | [8] 94 % of control | dose: 200.0 mg/kg/injection, schedule: Q04DX002 (ip), vehicle: saline with Tween-80 93 % of control | [10] 94 % of control | [12] 90 % of control

CCCCOC(c1ccc2c(c1)OCO2)C(C)Br (stereo not drawn)
inactive: [8] 94 % of control | [10] 94 % of control | [12] 97 % of control

CCOC(=O)C(C(=O)CC)=P(c1ccccc1)(c1ccccc1)c1ccccc1
inactive: dose: 100.0 mg/kg/injection, schedule: Q01DX005 (ip), vehicle: Klucel (hydroxypropylcellulose) (HPC) 113 % of control | [4] 97 % of control | dose: 200.0 mg/kg/injection, schedule: Q01DX005 (ip), vehicle: Klucel (hydroxypropylcellulose) (HPC) 88 % of control | [5] 108 % of control | dose: 400.0 mg/kg/injection, schedule: Q01DX005 (ip), vehicle: Klucel (hydroxypropylcellulose) (HPC) 98 % of control | [6] 110 % of control

O=C(/C=C(\OB(F)F)c1ccccc1)c1ccccc1
inactive: dose: 50.0 mg/kg/injection, schedule: Q01DX001 (ip), vehicle: carboxymethylcellulose (CMC) 102 % of control | [17] 94 % of control | [18] 100 % of control | dose: 400.0 mg/kg/injection, schedule: Q01DX001 (ip), vehicle: carboxymethylcellulose (CMC) 90 % of control

NC(=O)OCCCl
inactive: dose: 100.0 mg/kg/injection, schedule: Q04DX002 (ip), vehicle: saline 98 % of control | dose: 200.0 mg/kg/injection, schedule: Q04DX002 (ip), vehicle: saline 109 % of control | dose: 400.0 mg/kg/injection, schedule: Q04DX002 (ip), vehicle: saline 102 % of control

Cc1cc(C)c(NC(=O)c2c(Br)c(Br)c(Br)c(Br)c2C(=O)O)c(C)c1
inactive: [14] 101 % of control | [15] 111 % of control | [16] 87 % of control

C=CC(=C)OC
inactive: dose: 25.0 mg/kg/injection, schedule: Q01DX005 (ip), vehicle: saline 117 % of control | dose: 50.0 mg/kg/injection, schedule: Q01DX005 (ip), vehicle: saline 113 % of control | dose: 100.0 mg/kg/injection, schedule: Q01DX005 (ip), vehicle: saline 111 % of control | dose: 200.0 mg/kg/injection, schedule: Q01DX005 (ip), vehicle: saline 107 % of control | dose: 400.0 mg/kg/injection, schedule: Q01DX005 (ip), vehicle: saline 111 % of control

CCO/C([O-])=C/[P+](c1ccccc1)(c1ccccc1)c1ccccc1
inactive: dose: 12.5 mg/kg/injection, schedule: Q01DX009 (ip), vehicle: Klucel (hydroxypropylcellulose) (HPC) 103 % of control | [19] 106 % of control | dose: 25.0 mg/kg/injection, schedule: Q04DX003 (ip), vehicle: Klucel (hydroxypropylcellulose) (HPC) 103 % of control | [20] 103 % of control | dose: 50.0 mg/kg/injection, schedule: Q04DX003 (ip), vehicle: Klucel (hydroxypropylcellulose) (HPC) 103 % of control | [3] 96 % of control

COc1ccc(C(Nc2ccc([N+](=O)[O-])cc2)P(=O)(c2ccccc2)c2ccccc2)cc1 (stereo not drawn)
inactive: dose: 100.0 mg/kg/injection, schedule: Q01DX009 (ip), vehicle: saline 102 % of control | dose: 200.0 mg/kg/injection, schedule: Q01DX009 (ip), vehicle: saline 95 % of control | dose: 400.0 mg/kg/injection, schedule: Q01DX009 (ip), vehicle: saline 106 % of control

CC(C)CN=C(N)CSS(=O)(=O)O
inactive: dose: 12.5 mg/kg/injection, schedule: Q04DX002 (ip), vehicle: Klucel (hydroxypropylcellulose) (HPC) 102 % of control | dose: 25.0 mg/kg/injection, schedule: Q04DX002 (ip), vehicle: Klucel (hydroxypropylcellulose) (HPC) 105 % of control | dose: 50.0 mg/kg/injection, schedule: Q04DX002 (ip), vehicle: Klucel (hydroxypropylcellulose) (HPC) 94 % of control | [15] 94 % of control

Nc1ccc2c(c1)C(=NO)c1cc(N)ccc1-2
inactive: [17] 106 % of control | [18] 108 % of control

O=[N+]([O-])c1ccc(N/N=C\c2c(Cl)c(Cl)c(/C=N/Nc3ccc([N+](=O)[O-])cc3)c(Cl)c2Cl)cc1
inactive: dose: 50.0 mg/kg/injection, schedule: Q01DX001 (ip), vehicle: saline 91 % of control | [1] 91 % of control | [2] 94 % of control | [13] 94 % of control

NC(=S)N/N=C(\c1ccccc1)c1cccc2ccccc12
inactive: [19] 91 % of control | [20] 91 % of control | [14] 93 % of control

N#CC(C#N)=CN1CCCC1
inactive: dose: 5.0 mg/kg/injection, schedule: Q01DX009 (ip), vehicle: saline with Tween-80 89 % of control | dose: 10.0 mg/kg/injection, schedule: Q01DX009 (ip), vehicle: saline with Tween-80 91 % of control | dose: 20.0 mg/kg/injection, schedule: Q01DX009 (ip), vehicle: saline with Tween-80 93 % of control

O=C(O)c1cc(I)c(I)c(I)c1
inactive: [8] 97 % of control | [10] 101 % of control
